In BindingDB's records for patent US9284322 (Research Triangle Institute, 2016) one finds Ki data, which are given here for three compounds.

The experiment has as its target Isoform Alpha-4-2 of Neuronal acetylcholine receptor subunit alpha-4 (Alpha-4-2)/Neuronal acetylcholine receptor subunit beta-2 (Rat, UniProt P09483+P12390). In words: Adult male rat cerebral cortices (Pelfreeze Biological, Rogers, Ark.) were homogenized in 39 volumes of ice-cold 50 mM Tris buffer (pH 7.4 at 4° C.) containing 120 mM NaCl, 5 mM KCl, 2 mM CaCl2, and 1 mM MgCl2 and sedimented at 37,000 g for 10 min at 4° C. The supernatant was discarded, the pellet resuspended in the original volume of buffer, and the wash procedure repeated twice more. After the last centrifugation, the pellet was resuspended in 1/10 its original homogenization volume and stored at −80° C. until needed. […] Total and nonspecific bindings were determined in the presence of vehicle and 300 μM (−)-ni. The following applies: 25 °C.

Isoform Alpha-4-2 of Neuronal acetylcholine receptor subunit alpha-4 (Alpha-4-2)/Neuronal acetylcholine receptor subunit beta-2, sequence (P09483 as listed by the source): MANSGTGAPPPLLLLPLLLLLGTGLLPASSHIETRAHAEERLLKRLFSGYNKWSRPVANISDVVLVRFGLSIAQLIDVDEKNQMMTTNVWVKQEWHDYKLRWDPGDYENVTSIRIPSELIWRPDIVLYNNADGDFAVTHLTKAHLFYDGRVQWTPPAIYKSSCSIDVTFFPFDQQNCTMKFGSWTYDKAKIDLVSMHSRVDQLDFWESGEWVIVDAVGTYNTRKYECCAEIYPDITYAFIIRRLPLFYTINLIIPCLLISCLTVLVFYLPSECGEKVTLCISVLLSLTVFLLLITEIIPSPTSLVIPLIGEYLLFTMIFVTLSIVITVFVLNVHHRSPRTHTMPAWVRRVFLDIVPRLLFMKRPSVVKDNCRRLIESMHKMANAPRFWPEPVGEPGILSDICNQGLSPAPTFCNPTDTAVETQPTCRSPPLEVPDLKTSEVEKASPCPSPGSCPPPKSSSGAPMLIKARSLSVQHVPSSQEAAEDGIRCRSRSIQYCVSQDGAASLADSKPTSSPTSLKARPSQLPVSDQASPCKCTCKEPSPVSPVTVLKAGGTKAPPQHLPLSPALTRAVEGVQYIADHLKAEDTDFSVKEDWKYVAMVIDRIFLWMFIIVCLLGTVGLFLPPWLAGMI
Isoform Alpha-4-2 of Neuronal acetylcholine receptor subunit alpha-4 (Alpha-4-2)/Neuronal acetylcholine receptor subunit beta-2, sequence (P12390 whole entry, canonical isoform): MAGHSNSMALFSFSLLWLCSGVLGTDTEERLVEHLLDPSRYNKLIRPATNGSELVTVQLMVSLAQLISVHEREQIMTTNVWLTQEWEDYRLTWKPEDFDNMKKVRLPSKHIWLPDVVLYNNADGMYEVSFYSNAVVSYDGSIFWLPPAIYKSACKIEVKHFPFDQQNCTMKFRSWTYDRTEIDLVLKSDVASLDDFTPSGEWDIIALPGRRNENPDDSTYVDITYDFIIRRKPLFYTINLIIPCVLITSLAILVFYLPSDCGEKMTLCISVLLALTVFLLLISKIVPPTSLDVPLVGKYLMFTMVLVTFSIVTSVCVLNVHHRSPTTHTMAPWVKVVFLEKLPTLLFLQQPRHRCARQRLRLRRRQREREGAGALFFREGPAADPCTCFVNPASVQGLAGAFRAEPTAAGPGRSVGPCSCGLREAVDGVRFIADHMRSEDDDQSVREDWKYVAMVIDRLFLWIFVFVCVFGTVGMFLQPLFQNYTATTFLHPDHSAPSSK

For `c1ncc(-c2cncc(C3CC4CCC3N4)c2)cn1` (stereo not drawn) [US9284322, Table 7, Compound 1], the Ki (as a rule, the equilibrium dissociation constant of an inhibitor or competing ligand from its target) worked out at 0.12 nM.
For `Fc1ncc(C2CC3CCC2N3)cc1-c1cncnc1` (stereo not drawn) [US9284322, Table 7, Compound 2], the Ki stood at 0.84 nM.
To `Clc1ncc(C2CC3CCC2N3)cc1-c1cncnc1` (stereo not drawn) [US9284322, Table 7, Compound 3] belongs 0.32 nM.
